Experimental data taken from patent US5039670A, “Antithrombotic substituted cycloalkano(B)dihydroindole- and -indole-sulphonamides and use” (Bayer Aktiengesellschaft, priority 1989, dated 1991).

These compounds were tested on thrombocyte aggregation (assay: Inhibition of collagen-triggered thrombocyte aggregation in platelet-rich citrated plasma (turbidometry, aggregometer)). Details: Homo sapiens, 0.1 h, 37° C., response after 6 minutes, read-out: EC (limiting concentration, range of the minimum effective concentration).
Assay type: cell-based
Method: To determine the action as an inhibitor of thrombocyte aggregation, blood was used from healthy subjects of both sexes. 9 parts of blood were treated with one part of 3.8% strength aqueous sodium citrate solution as an anticoagulant. From this blood, platelet-rich citrated plasma (PRP)^1 is obtained (Jurgens/Beller, Klinische Methoden der Blutgerinnungsanalyse [Clinical Methods in Blood Coagulation Analysis]; Thieme Verlag, Stuttgart, 1959).
For these assays, 0.8 ml of (PRP)^1 and 0.1 ml of the active compound solution were preincubated at 37° C. in a water bath. The thrombocyte aggregation was then determined in an aggregometer at 37° C. (Therapeutische Berichte 47, 80-86, 1975) by means of turbidometry (Born, G.V.R., J. Physiol. (London), 162, 67, 1962). For this purpose, the preincubated sample was treated with 0.1 ml of collagen, an agent which triggers aggregations. The (PRP)^1 sample underwent changes in optical density, which was recorded during a period of 6 minutes, and the response was determined after 6 minutes. From this, the inhibition compared with the control is calculated as a percentage. The limiting concentration given is the range of the minimum effective concentration.

Q: `CCOC(=O)CCn1c2c(c3cc(F)ccc31)CC(NS(=O)(=O)c1ccc(Cl)cc1)CC2` (stereo not drawn) [Example 8] was tested. Which minimal effective concentration did it give?
A: 0.3 to 1 µg/mL

Q: `O=C(O)CCn1c2c(c3cc(F)cc(F)c31)CC(NS(=O)(=O)c1ccc(Cl)cc1)CC2` (stereo not drawn) [Example 4] was tested. Which minimal effective concentration did it give?
A: 0.01 to 0.03 µg/mL

Q: For `NC(=O)CCn1c2c(c3cc(F)ccc31)CC(NS(=O)(=O)c1ccc(Cl)cc1)CC2` (stereo not drawn) [Example 15], which minimal effective concentration is on record?
A: 0.01 to 0.03 µg/mL
